Results on 8 molecules are retold here after ChEMBL document CHEMBL5465560, “Selectivity Literature for EUbOPEN Chemogenomic Library” (2024).

For test [1], the target named is Serine/threonine-protein kinase PLK2 (Homo sapiens, UniProt Q9NYY3). The experiment in a line: Selectivity interaction (Kinase panel (Z-LYTE Assay)) EUB0001632a PLK2. Conditions: at 10 µM.
Test [2] has as its target Serine/threonine-protein kinase PAK 1 (Homo sapiens) (UniProt Q13153). The experiment in a line: Selectivity interaction (KinomeScan (DiscoverX)) EUB0000595a PAK1. The conditions noted are these: at 10 µM.
The target in test [3] is Serine/threonine-protein kinase MRCK alpha (Homo sapiens) (UniProt Q5VT25). The experiment in a line: Selectivity interaction (KinomeScan (DiscoverX)) EUB0000607a CDC42BPA. Conditions: at 10 µM.
Sequence of Serine/threonine-protein kinase MRCK alpha (Homo sapiens) (Q5VT25 whole entry): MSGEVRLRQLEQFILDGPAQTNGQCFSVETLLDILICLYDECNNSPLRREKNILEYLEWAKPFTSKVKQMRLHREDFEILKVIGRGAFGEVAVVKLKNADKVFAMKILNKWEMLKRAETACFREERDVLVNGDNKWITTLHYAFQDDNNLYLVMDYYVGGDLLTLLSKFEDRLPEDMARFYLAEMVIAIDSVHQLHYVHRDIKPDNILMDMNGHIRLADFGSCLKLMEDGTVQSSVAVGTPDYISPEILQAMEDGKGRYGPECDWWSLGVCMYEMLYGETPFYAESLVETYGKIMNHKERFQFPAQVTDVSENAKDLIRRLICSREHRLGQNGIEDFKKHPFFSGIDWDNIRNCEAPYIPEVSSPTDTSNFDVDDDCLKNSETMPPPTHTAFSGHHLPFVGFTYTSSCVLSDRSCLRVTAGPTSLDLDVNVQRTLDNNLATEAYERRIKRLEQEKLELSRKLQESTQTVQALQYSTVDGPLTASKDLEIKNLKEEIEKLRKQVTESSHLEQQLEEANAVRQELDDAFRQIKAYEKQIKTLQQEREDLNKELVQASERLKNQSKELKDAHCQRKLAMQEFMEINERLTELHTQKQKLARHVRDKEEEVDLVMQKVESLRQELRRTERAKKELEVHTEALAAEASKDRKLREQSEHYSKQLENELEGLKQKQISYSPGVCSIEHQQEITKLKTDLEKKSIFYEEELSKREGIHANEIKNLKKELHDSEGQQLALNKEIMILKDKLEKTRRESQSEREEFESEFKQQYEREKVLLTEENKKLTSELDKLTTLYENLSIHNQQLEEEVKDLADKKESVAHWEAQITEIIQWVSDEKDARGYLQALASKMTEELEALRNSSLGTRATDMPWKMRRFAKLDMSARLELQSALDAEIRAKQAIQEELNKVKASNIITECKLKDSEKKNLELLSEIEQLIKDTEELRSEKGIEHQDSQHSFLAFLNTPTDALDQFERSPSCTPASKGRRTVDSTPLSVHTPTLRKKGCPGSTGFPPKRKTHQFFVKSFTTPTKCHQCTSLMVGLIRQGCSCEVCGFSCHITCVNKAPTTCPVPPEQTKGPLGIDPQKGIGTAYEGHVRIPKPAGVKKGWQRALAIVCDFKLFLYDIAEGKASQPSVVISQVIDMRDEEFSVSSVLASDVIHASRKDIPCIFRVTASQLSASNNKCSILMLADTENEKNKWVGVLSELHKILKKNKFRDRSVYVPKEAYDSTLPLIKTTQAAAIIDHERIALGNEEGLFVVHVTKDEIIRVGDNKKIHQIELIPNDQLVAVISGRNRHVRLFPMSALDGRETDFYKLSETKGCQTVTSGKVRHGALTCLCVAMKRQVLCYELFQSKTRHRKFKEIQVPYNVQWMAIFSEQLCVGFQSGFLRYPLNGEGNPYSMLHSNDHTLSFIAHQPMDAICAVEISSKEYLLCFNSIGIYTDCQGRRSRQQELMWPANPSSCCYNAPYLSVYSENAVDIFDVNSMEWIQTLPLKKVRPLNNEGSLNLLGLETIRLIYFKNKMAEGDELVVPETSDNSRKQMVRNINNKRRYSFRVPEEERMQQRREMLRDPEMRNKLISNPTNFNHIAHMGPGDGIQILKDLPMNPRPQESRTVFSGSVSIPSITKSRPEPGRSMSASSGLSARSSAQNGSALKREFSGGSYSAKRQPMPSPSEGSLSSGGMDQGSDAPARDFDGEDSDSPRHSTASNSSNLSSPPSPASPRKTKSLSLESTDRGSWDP
The target in test [4] is Serine/threonine-protein kinase PLK3 (Homo sapiens, UniProt Q9H4B4). The experiment in a line: Selectivity interaction (SelectScreen profiling (Invitrogen)) EUB0000607a PLK3. The conditions noted are these: at 2 µM.
Sequence of Serine/threonine-protein kinase PLK3 (Q9H4B4 whole entry, looked up): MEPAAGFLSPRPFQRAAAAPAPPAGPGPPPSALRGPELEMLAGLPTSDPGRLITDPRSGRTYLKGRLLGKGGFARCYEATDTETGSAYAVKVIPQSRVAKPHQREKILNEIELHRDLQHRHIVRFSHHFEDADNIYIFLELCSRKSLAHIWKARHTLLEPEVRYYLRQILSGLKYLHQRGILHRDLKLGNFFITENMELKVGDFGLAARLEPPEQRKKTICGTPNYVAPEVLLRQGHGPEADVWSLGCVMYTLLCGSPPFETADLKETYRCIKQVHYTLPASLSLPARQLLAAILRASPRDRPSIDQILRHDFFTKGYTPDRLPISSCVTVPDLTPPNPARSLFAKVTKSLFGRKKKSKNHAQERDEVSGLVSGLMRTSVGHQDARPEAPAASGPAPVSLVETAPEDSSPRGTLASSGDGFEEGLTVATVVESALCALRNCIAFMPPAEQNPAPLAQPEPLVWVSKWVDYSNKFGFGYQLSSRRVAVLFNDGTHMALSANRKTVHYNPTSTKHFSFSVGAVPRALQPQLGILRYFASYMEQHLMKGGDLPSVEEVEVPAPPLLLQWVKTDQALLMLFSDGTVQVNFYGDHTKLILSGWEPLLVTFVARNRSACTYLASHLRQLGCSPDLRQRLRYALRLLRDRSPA
For test [5], the target named is T1, Tyrosine-protein kinase JAK3 (Homo sapiens) (UniProt P52333).
T1 sequence (whole entry): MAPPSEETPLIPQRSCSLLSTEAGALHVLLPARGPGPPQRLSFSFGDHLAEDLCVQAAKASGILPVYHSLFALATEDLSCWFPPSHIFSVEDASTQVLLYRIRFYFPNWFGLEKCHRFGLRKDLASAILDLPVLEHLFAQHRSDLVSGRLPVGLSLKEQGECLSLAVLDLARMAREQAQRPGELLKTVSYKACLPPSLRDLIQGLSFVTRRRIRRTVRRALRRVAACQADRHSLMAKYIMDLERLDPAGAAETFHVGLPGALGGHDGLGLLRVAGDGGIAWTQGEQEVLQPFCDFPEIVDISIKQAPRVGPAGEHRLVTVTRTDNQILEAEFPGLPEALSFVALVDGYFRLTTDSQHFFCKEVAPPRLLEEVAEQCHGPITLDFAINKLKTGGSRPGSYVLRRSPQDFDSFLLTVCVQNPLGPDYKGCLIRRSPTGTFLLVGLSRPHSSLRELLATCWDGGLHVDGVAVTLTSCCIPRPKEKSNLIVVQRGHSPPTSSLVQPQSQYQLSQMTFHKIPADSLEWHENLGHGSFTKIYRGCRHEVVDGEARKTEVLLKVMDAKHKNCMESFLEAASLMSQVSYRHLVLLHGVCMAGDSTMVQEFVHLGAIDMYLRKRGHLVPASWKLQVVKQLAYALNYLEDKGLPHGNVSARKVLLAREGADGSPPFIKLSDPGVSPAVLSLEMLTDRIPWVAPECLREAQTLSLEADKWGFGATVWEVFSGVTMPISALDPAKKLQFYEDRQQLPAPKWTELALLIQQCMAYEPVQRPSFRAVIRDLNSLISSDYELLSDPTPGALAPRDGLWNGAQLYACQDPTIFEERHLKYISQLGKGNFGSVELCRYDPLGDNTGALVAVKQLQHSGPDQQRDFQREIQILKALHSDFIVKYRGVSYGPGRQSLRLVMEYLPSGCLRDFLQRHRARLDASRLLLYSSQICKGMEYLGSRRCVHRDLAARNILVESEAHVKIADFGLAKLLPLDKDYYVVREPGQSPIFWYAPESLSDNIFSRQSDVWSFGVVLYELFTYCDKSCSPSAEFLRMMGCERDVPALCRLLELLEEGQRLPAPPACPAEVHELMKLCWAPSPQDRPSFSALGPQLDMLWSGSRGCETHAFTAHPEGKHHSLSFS
The experiment in a line: Selectivity interaction (Kinase panel (literature)) EUB0001199aCl JAK3. The conditions noted are these: at 1 µM.

Test [6] concerns the target Serine/threonine-protein kinase PLK1 (Homo sapiens, UniProt P53350). The experiment in a line: Selectivity interaction (ProQinase) EUB0000171b PLK1.
The target in test [7] is T2, cGMP-dependent protein kinase 2 (Homo sapiens) (UniProt Q13237).
T2 sequence (whole entry): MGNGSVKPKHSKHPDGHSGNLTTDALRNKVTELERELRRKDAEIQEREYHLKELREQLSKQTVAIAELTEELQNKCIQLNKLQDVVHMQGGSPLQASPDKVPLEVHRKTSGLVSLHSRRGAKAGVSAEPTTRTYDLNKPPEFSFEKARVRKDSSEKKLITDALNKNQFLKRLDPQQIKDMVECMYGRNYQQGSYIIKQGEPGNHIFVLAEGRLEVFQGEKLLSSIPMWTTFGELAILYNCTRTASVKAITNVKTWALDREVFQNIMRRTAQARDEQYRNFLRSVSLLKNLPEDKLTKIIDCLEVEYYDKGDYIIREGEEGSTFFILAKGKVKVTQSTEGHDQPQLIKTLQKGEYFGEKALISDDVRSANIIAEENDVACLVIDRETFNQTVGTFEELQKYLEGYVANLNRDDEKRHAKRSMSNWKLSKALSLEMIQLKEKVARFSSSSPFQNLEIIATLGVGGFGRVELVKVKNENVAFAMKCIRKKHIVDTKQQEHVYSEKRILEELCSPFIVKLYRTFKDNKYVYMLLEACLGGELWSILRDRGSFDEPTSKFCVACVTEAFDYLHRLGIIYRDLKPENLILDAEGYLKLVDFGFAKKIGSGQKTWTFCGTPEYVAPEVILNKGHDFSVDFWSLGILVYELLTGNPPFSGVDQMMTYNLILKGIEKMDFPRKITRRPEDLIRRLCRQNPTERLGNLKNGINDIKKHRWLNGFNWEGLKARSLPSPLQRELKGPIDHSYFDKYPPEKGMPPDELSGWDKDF
The experiment in a line: Selectivity interaction (Upstate Kinase Profiler service (Millipore)) EUB0000056c PRKG2. Conditions: at 1 µM.

Test [8] has as its target Phosphatidylinositol 4-kinase beta (Homo sapiens, UniProt Q9UBF8). As to the kind of experiment: Selectivity interaction (KinomeScan (DiscoverX)) EUB0000655a PI4KB. The conditions noted are these: at 10 µM.
The target in test [9] is T3, Mitogen-activated protein kinase kinase kinase 2 (Homo sapiens) (UniProt Q9Y2U5).
T3 sequence (whole entry): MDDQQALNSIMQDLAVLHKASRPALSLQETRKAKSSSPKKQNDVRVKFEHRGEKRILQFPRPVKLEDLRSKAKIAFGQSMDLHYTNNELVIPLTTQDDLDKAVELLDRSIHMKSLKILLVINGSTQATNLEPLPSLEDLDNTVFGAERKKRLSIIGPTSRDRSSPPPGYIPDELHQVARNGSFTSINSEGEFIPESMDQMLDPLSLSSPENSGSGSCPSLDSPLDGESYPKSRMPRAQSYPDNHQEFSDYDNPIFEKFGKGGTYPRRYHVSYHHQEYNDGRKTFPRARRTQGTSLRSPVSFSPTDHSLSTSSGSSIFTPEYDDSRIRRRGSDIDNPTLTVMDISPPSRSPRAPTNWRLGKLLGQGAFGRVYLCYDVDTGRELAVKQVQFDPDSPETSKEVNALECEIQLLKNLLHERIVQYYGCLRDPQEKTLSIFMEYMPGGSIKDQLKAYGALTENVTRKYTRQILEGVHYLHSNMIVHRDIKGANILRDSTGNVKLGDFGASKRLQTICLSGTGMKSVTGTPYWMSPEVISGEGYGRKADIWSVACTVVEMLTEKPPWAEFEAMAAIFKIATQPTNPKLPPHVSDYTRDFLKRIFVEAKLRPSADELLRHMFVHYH
As to the kind of experiment: Selectivity interaction (KinomeScan (DiscoverX)) EUB0000229b MAP3K2. Conditions: at 10 µM.

Sequence of Serine/threonine-protein kinase PLK1 (P53350 whole entry): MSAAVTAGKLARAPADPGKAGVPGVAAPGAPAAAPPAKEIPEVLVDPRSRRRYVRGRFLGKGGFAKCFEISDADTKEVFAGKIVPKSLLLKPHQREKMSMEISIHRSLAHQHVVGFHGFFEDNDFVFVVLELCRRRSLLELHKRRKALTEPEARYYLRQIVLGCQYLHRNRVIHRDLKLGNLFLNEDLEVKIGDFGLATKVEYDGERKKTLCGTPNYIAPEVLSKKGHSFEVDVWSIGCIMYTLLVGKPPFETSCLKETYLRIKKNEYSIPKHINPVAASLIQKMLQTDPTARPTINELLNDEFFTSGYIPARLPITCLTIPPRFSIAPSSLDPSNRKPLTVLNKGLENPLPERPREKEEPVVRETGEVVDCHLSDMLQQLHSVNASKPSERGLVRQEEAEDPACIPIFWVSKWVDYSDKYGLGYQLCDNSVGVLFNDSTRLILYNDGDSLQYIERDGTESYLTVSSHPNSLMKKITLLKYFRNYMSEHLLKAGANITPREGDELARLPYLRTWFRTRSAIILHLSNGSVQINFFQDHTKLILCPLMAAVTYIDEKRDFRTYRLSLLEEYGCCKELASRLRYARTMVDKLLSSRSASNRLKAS
Sequence of Serine/threonine-protein kinase PAK 1 (Homo sapiens) (Q13153 whole entry): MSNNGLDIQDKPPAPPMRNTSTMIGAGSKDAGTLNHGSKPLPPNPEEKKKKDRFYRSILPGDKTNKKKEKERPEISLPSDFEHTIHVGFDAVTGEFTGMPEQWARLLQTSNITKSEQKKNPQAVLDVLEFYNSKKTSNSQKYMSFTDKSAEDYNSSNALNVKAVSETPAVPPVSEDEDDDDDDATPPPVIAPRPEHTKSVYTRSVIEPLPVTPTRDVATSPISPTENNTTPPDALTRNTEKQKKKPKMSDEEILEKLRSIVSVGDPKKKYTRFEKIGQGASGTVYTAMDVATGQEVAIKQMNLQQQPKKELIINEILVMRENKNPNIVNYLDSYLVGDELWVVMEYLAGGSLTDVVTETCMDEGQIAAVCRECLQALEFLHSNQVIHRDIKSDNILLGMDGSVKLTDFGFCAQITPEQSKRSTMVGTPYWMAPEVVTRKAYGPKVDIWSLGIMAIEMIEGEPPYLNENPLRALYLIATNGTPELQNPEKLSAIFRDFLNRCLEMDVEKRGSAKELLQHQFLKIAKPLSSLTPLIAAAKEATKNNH
Sequence of Serine/threonine-protein kinase PLK2 (Q9NYY3 whole entry, looked up): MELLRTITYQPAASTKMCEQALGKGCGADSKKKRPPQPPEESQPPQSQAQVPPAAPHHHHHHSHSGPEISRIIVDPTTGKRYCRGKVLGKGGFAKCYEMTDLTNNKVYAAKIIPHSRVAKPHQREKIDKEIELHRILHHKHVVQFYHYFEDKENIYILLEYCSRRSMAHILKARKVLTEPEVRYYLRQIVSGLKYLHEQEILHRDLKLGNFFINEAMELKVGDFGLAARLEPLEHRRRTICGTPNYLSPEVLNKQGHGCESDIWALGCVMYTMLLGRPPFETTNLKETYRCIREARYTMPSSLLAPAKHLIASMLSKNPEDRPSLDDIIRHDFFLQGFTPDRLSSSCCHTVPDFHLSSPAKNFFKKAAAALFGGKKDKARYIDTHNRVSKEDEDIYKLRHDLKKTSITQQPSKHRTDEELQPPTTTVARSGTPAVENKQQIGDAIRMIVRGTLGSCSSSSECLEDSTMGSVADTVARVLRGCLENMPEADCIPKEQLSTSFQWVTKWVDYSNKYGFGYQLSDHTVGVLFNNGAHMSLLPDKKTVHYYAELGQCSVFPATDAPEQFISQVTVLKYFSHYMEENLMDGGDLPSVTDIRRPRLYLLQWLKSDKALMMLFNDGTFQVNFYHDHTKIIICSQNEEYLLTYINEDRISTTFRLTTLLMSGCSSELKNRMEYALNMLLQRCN
Sequence of Phosphatidylinositol 4-kinase beta (Q9UBF8 2-816 limits assumed): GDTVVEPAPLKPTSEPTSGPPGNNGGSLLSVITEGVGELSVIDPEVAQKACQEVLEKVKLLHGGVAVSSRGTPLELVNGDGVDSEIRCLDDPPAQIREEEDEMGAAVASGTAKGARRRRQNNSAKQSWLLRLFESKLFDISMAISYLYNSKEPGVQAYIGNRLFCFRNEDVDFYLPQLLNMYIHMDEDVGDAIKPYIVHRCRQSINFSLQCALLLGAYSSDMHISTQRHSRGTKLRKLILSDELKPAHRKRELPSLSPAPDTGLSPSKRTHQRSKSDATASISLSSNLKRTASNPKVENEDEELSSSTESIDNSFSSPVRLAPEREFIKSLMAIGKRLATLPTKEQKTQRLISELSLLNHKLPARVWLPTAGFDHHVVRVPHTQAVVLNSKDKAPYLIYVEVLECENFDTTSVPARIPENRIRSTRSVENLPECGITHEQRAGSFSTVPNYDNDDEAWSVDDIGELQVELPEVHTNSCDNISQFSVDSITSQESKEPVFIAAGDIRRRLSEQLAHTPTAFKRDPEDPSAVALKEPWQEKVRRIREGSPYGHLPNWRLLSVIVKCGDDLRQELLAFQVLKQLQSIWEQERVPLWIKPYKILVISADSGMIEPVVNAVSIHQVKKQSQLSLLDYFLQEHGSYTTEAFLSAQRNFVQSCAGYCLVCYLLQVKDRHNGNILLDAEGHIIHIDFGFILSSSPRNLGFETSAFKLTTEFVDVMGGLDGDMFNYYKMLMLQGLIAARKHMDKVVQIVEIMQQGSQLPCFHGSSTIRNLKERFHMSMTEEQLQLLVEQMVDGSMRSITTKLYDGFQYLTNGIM

Consider `Cn1cc(-n2cnc3c(NCc4nc5cc(Cl)c(Cl)cc5[nH]4)nc(N4CCOCC4)nc32)cn1`, for which, in [1], the % of control was -0.658%.

As to `COCC(=O)NC/C=C/c1ccc2ncnc(Nc3ccc(Oc4ccc(C)nc4)c(C)c3)c2c1` [CP-724714], the % of control in test [2] came out at 81%.

Take `CNC(=O)Nc1ccc(-c2nc(N3CC4CCC(C3)O4)c3cnn(C4CCC5(CC4)OCCO5)c3n2)cc1`: the % of control in test [3] came out at 100%. For the same molecule, the % of inhibition in test [4] was -11%.

`CN1Cc2nccc(-c3cn(C)nc3-c3ccc(F)cc3)c2C1=O`: the % of inhibition in test [5] is -2%.

In the case of `C=CC(=O)Nc1cccc(C(=O)Nc2ccc(Nc3cc(-c4[nH]c(SC)nc4C)ccn3)cc2)c1`, the figures for the % of control in test [6] (at 1 µM) and in [6] (at 5 µM) were 98% and 96%, respectively.

For the molecule `Cc1ccc(-c2ccc3c(ccc4sc5c(c43)NC[C@@H](C)NC5=O)n2)cn1`, in test [7], the % of inhibition is -6%.

Consider `CN(C)CCOc1ccc(-c2nc(-c3ccncc3)c(-c3ccc4c(c3)CC/C4=N\O)[nH]2)cc1`, for which, in test [8], the % of control stood at 88%.

`COc1cc(N(C)c2ccnc3ccc(C(F)(F)F)cc23)cc(OC)c1OC`: the % binding in test [9] was 52%.
